Data as given in patent US20210353701A1, “ULTRAVIOLET LIGHT-INDUCED INFLAMMATION SUPPRESSING AGENT COMPRISING ALTERNATIVE AUTOPHAGY INDUCING AGENT” (Shiseido Company, Ltd., priority 2018, published 2021).

Key:
NHEK cells = experiment: IL-1β production after ultraviolet irradiation in siRNA-treated NHEK cells (ELISA); format: cell-based, human; conditions: siRNA 200 nM; UV 290 to 315 nm, 15 mJ/cm^2; culture supernatant after 48 hours
Experimental: (§1) An Amaxa Human Keratinocyte Nucleofector Kit (Lonza) was used to transfect NHEK cells (8.0×10^5 cells) with siRNA to a final concentration of 200 nM. The knockdown efficiency was confirmed by the mRNA expression level of Atg5, Atg7 and Beclin1 using an RT-PCR method (FIGS. 2A, B and C). The RT-PCR primers used were primers by Sigma-Aldrich, and GAPDH (Sigma-Aldrich) was used as an internal standard for standardization of the expression levels.
The siRNA-treated NHEK cells were seeded into a 6-well plate and cultured for 24 hours. The medium was then discarded, PBS was exchanged, and irradiation was carried out with ultraviolet rays (290 to 315 nm) at a radiation intensity of 15 mJ/cm^2. Following ultraviolet irradiation, the medium was again exchanged and culturing was continued for 48 hours to obtain a culture supernatant. The IL-1β concentration of the obtained culture supernatant was evaluated using a Quantikine Human IL-1β ELISA Kit (R&D co.) (FIGS. 3A, B and C). Student's t-test was used as the statistical significance test.

Atg5 = experiment: siRNA knockdown efficiency by RT-PCR, Atg5; format: cell-based, human; conditions: siRNA 200 nM in NHEK cells, GAPDH internal standard
Experimental: as §1

[1] = tested on: Normal human epidermal keratinocytes (NHEK); experiment: IL-1β production after ultraviolet irradiation in NHEK treated with autophagy inhibitor or inducing agent (ELISA); format: cell-based; conditions: 3-MA 1 mM; UV 290 to 315 nm, 20 mJ/cm^2; culture supernatant after 48 hours
Experimental: Normal human epidermal keratinocytes (NHEK) (Kurabo Industries, Ltd.) were seeded in a 6-well plate and cultured to subconfluence using epidermal keratinocyte growth medium (EpiLife-KG2; Gibco Co). The medium was then exchanged with medium containing 3-methyladenine (3-MA) (by R&D Co., final concentration: 1 mM), as a known autophagy inhibitor and medium containing rapamycin (by Enzo Life Science, final concentration: 0.5 μM) as a known autophagy inducing agent, and culturing was continued for 3 hours. After culturing, the medium was discarded, PBS was added and irradiation was carried out with ultraviolet rays (290 to 315 nm) at a radiation intensity of 20 mJ/cm^2. Following ultraviolet irradiation, culturing was continued under the medium conditions described above including 3-MA or rapamycin, and after 48 hours the culture supernatant of each was obtained. The IL-1β concentration of the obtained culture supernatant was evaluated using a Quantikine Human IL-1β ELISA Kit (R&D co.) (FIGS. 1A and B). Statistical significance testing was conducted using Student's or Welch's t test.

Atg7 = experiment: siRNA knockdown efficiency by RT-PCR, Atg7; format: cell-based, human; conditions: siRNA 200 nM in NHEK cells, GAPDH internal standard
Experimental: as §1

Beclin1 = experiment: siRNA knockdown efficiency by RT-PCR, Beclin1; format: cell-based, human; conditions: siRNA 200 nM in NHEK cells, GAPDH internal standard
Experimental: as §1

Row | Compound | IL-1β production induced by ultraviolet ray (NHEK cells) | Atg5 expression (mRNA) (Atg5) | IL-1β concentration after ultraviolet irradiation, increase [1] | Atg7 expression (mRNA) (Atg7) | Beclin1 expression (mRNA) (Beclin1)
1 | Atg5-targeted siRNA: siRNA for Atg5 purchased from Invitrogen, SEQ ID NO: 1 and 2 (chain 1 GGUUUGGACGAAUUCCAACUUGUUU; chain 2 AAACAAGUUGGAAUUCGUCCAAACC; listed as RNA, chemistry not given here) | unchanged | suppressed | – | – | –
2 | Cn1cnc(N)c2ncnc1-2 [3-methyladenine] | – | – | approximately 3 fold | – | –
3 | Atg7-targeted siRNA: siRNA for Atg7 purchased from Invitrogen, SEQ ID NO: 3 and 4 (chain 1 GCCGUCAUUGCUGCAAGCAAGAGAA; chain 2 UUCUCUUGCUUGCAGCAAUGACGGC; listed as RNA, chemistry not given here) | unchanged | – | – | suppressed | –
4 | Beclin1-targeted siRNA: siRNA for Beclin1 purchased from Invitrogen, SEQ ID NO: 5 and 6 (chain 1 CCAAUAAGAUGGGUCUGAAAUUUCA; chain 2 UGAAAUUUCAGACCCAUCUUAUUGG; listed as RNA, chemistry not given here) | significantly increased | – | – | – | suppressed
